Data as given in ChEMBL document CHEMBL1138048, “Synthesis and anticancer activity of brefeldin A ester derivatives” (J Med Chem, 2006).

Legend:
[1] = system: A549; experiment: Antiproliferative activity against human A549 cell line; assay type: functional
[2] = system: SF-539; experiment: Antiproliferative activity against human SF539 cell line; assay type: functional
[3] = system: OVCAR-3; experiment: Antiproliferative activity against human OVCAR-3 cell line; assay type: functional
[4] = system: SN12C; experiment: Antiproliferative activity against human SN12C cell line; assay type: functional
[5] = system: PC-3; experiment: Antiproliferative activity against human PC3 cell line; assay type: functional
[6] = system: MCF7; experiment: Antiproliferative activity against human MCF7 cell line; assay type: functional
[7] = system: Panel NCI-60 (60 carcinoma cell lines); experiment: Antiproliferative activity against NCI60 cell line; assay type: functional; details: Homo sapiens
[8] = Half life in rat plasma; assay type: ADME, cell-free
[9] = system: HCT-116; experiment: Antiproliferative activity against HCT116 cell line; assay type: functional; details: Homo sapiens
[10] = system: UACC-62; experiment: Antiproliferative activity against human UACC62 cell line; assay type: functional

## C[C@H]1CCC/C=C/[C@@H]2C[C@H](OC(=O)CCCC(=O)O)C[C@H]2[C@H](O)/C=C/C(=O)O1
[1]
  GI50: 33200 nM
[2]
  GI50: 22400 nM
[3]
  GI50: 20400 nM
[4]
  GI50: 32400 nM
[5]
  GI50: 19500 nM
[6]
  GI50: 19000 nM
[7]
  GI50: 13000 nM
[8]
  half-life: > 1440 min
[9]
  GI50: 21400 nM

## COC(=O)CCCC(=O)O[C@@H]1C[C@H]2[C@H](O)/C=C/C(=O)O[C@@H](C)CCC/C=C/[C@@H]2C1
[1]
  GI50: 50 nM
[2]
  GI50: 70 nM
[10]
  GI50: 130 nM
[3]
  GI50: 30 nM
[4]
  GI50: 200 nM
[5]
  GI50: 60 nM
[6]
  GI50: 40 nM
[7]
  GI50: 110 nM
[8]
  half-life: 3 min
[9]
  GI50: 40 nM

## C[C@H]1CCC/C=C/[C@@H]2C[C@H](OC(=O)CCCC(=O)NCCCCCCO)C[C@H]2[C@H](O)/C=C/C(=O)O1
[1]
  GI50: 700 nM
[5]
  GI50: 330 nM
[6]
  GI50: 180 nM
[7]
  GI50: 470 nM
[9]
  GI50: 650 nM

## C[C@H]1CCC/C=C/[C@@H]2C[C@H](O)C[C@H]2[C@H](OC(=O)CCCC(=O)O)/C=C/C(=O)O1
[1]
  GI50: 33100 nM
[2]
  GI50: 31600 nM
[10]
  GI50: 31600 nM
[3]
  GI50: 36300 nM
[4]
  GI50: 30200 nM
[5]
  GI50: 43600 nM
[6]
  GI50: 39800 nM
[7]
  GI50: 29500 nM
[9]
  GI50: 25700 nM

## CC(=O)O[C@@H]1C[C@H]2[C@H](O)/C=C/C(=O)O[C@@H](C)CCC/C=C/[C@@H]2C1
[1]
  GI50: 10 nM
[2]
  GI50: 5250 nM
[10]
  GI50: 10 nM
[3]
  GI50: 10 nM
[4]
  GI50: 10 nM
[5]
  GI50: 40 nM
[6]
  GI50: 20 nM
[7]
  GI50: 40 nM
[8]
  half-life: 30 min
[9]
  GI50: 1150 nM

## COC(=O)CCCC(=O)O[C@@H]1C[C@@H]2[C@H](/C=C/CCC[C@H](C)OC(=O)/C=C/[C@H]2OC(=O)CCCC(=O)OC)C1
[1]
  GI50: 12900 nM
[2]
  GI50: 5010 nM
[10]
  GI50: 4470 nM
[3]
  GI50: 600 nM
[4]
  GI50: 3020 nM
[5]
  GI50: 5010 nM
[6]
  GI50: 2570 nM
[7]
  GI50: 5100 nM
[9]
  GI50: 3470 nM

## COC(=O)CCCC(=O)O[C@@H]1/C=C/C(=O)O[C@@H](C)CCC/C=C/[C@@H]2C[C@H](O)C[C@H]21
[1]
  GI50: 4170 nM
[2]
  GI50: 3390 nM
[10]
  GI50: 10 nM
[3]
  GI50: 2400 nM
[4]
  GI50: 10 nM
[5]
  GI50: 40 nM
[6]
  GI50: 310 nM
[7]
  GI50: 160 nM
[9]
  GI50: 3470 nM

## CC(=O)O[C@@H]1C[C@@H]2[C@H](/C=C/CCC[C@H](C)OC(=O)/C=C/[C@H]2OC(C)=O)C1
[1]
  GI50: 850 nM
[2]
  GI50: 58900 nM
[10]
  GI50: 10 nM
[3]
  GI50: 1480 nM
[4]
  GI50: 10 nM
[5]
  GI50: 2140 nM
[6]
  GI50: 2630 nM
[7]
  GI50: 450 nM
[9]
  GI50: 22900 nM

## C[C@H]1CCC/C=C/[C@@H]2C[C@H](OC(=O)CCCC(=O)O)C[C@H]2[C@H](OC(=O)CCCC(=O)O)/C=C/C(=O)O1
[1]
  GI50: > 100000 nM
[2]
  GI50: > 100000 nM
[10]
  GI50: > 100000 nM
[3]
  GI50: > 100000 nM
[4]
  GI50: > 100000 nM
[5]
  GI50: > 100000 nM
[6]
  GI50: > 100000 nM
[7]
  GI50: 97700 nM
[9]
  GI50: > 100000 nM

## C[C@H]1CCC/C=C/[C@@H]2C[C@H](O)C[C@H]2[C@H](O)/C=C/C(=O)O1 [BREFELDIN A]
[1]
  GI50: 40 nM
[10]
  GI50: 20 nM
[3]
  GI50: 30 nM
[5]
  GI50: 50 nM
[6]
  GI50: 20 nM
[7]
  GI50: 40 nM
[8]
  half-life: > 1440 min
[9]
  GI50: 30 nM
